In the supplement of paper PMC10331698:
± gives the standard deviation of the averaged measurements.

How the values were obtained:
Test in all cases: level (log10 ratio to DMSO vehicle control); higher = higher biomarker level / cell amount than vehicle control
Perfluorononanoic acid = compound: O=C(O)C(F)(F)C(F)(F)C(F)(F)C(F)(F)C(F)(F)C(F)(F)C(F)(F)C(F)(F)F [Perfluorononanoic acid] (in DMSO)
Protocol: (§1)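 BioMAP Diversity Plus panel of 12 human primary cell co-culture systems (3C, 4H, LPS, SAg, BT, BF4T, BE3C, CASM3C, HDF3CGF, KF3CT, MyoF, Mphg). Compounds were added 1 h before stimulation and left for 24 h (MyoF 48 h; BT 72 h for soluble read-outs or 6 d for IgG). Biomarkers were read by ELISA, cytotoxicity by SRB, PBMC viability and proliferation by Alamar Blue. Each well value was divided by the mean of 8 DMSO control wells on the same plate and log10 transformed; duplicate blinded samples were tested at 4 concentrations.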

[1] = compound: NS(=O)(=O)C(F)(F)C(F)(F)C(F)(F)C(F)(F)C(F)(F)C(F)(F)C(F)(F)C(F)(F)F [Perfluorooctanesulfonamide] (in DMSO)
Protocol: as §1

[2] = compound: O=S(=O)(O)C(F)(F)C(F)(F)OC(F)(F)C(F)(F)F [Perfluoro(2-ethoxyethane)sulfonic acid] (in DMSO)
Protocol: as §1

[3] = compound: C=C(C)C(=O)OCCC(F)(F)C(F)(F)C(F)(F)C(F)(F)C(F)(F)C(F)(F)C(F)(F)C(F)(F)F [8:2 Fluorotelomer methacrylate] (in DMSO)
Protocol: as §1

[4] = compound: CO[Si](C)(CCC(F)(F)C(F)(F)C(F)(F)C(F)(F)C(F)(F)C(F)(F)F)OC [Dimethoxymethyl((perfluorohexyl)ethyl)silane] (in DMSO)
Protocol: as §1

[5] = compound: O=C(O)C(F)(F)OC(F)(F)C(F)(F)OC(F)(F)C(F)(F)OC(F)(F)C(F)(F)C(F)(F)C(F)(F)F [Perfluoro-3,6,9-trioxatridecanoic acid] (in DMSO); conditions: 6700 nM
Protocol: as §1

[6] = compound: O=C(O)C(F)(OC(F)(F)C(F)(F)C(F)(F)F)C(F)(F)F [Ammonium perfluoro-2-methyl-3-oxahexanoate] (in Water)
Protocol: as §1

[7] = compound: OCC(F)(F)C(F)(F)C(F)(F)C(F)F [1H,1H,5H-Perfluoropentanol] (in DMSO)
Protocol: as §1

Row | Test System | level (log10) (Perfluorononanoic acid; 6700 nM) | level (log10) (Perfluorononanoic acid; 20000 nM) | level (log10) ([1]; 6700 nM) | level (log10) ([1]; 20000 nM) | level (log10) ([2]; 6700 nM) | level (log10) ([2]; 20000 nM) | level (log10) ([2]; 60000 nM) | level (log10) ([3]; 6700 nM) | level (log10) ([3]; 20000 nM) | level (log10) ([4]; 6700 nM) | level (log10) ([4]; 20000 nM) | level (log10) [5] | level (log10) ([6]; 6700 nM) | level (log10) ([6]; 20000 nM) | level (log10) ([6]; 60000 nM) | level (log10) ([7]; 6700 nM) | level (log10) ([7]; 20000 nM) | level (log10) ([7]; 60000 nM)
1 | CASM3C:CD87/uPAR | -0.02 ± 0.0071 | 0.023 | -0.007 ± 0.031 | -0.0055 ± 0.026 | 0.0025 ± 0.032 | 0.01 ± 0.024 | -0.0165 ± 0.046 | -0.006 ± 0.05 | -0.022 ± 0.033 | 0.007 ± 0.011 | -0.0045 ± 0.026 | 0.0205 ± 0.018 | -0.031 ± 0.076 | 0.0075 ± 0.011 | 0.014 ± 0.027 | 0.0065 ± 0.021 | 0.025 ± 0.017 | 0.005 ± 0.021
2 | CASM3C:CD106/VCAM-1 | 0.013 ± 0.0042 | -0.0245 ± 0.1 | -0.0185 ± 0.0021 | -0.0405 ± 0.037 | -0.0035 ± 0.023 | -0.0165 ± 0.026 | 0.001 ± 0.018 | -0.006 ± 0.0014 | -0.0145 ± 0.036 | -0.0265 ± 0.012 | -0.0155 ± 0.005 | -0.035 ± 0.024 | -0.0955 ± 0.061 | -0.0645 ± 0.005 | -0.083 ± 0.011 | 0.0335 ± 0.023 | 0.027 ± 0.065 | 0.0395 ± 0.013
3 | CASM3C:CD141/Thrombomodulin | 0.0145 ± 0.0092 | 0.0335 ± 0.016 | 0 ± 0.0085 | 0.0505 ± 0.0078 | 0.005 ± 0.011 | -0.015 ± 0.0071 | 0.023 ± 0.044 | -0.0195 ± 0.042 | 0.041 ± 0.082 | -0.008 ± 0.0057 | -0.015 ± 0.021 | -0.0345 ± 0.0064 | 0.113 ± 0.0057 | 0.0435 ± 0.11 | 0.035 ± 0.038 | 0.046 | 0.018 ± 0.017 | 0.032 ± 0.023
4 | CASM3C:CD142/Tissue Factor | -0.093 ± 0.064 | -0.115 ± 0.14 | 0.021 ± 0.011 | 0.082 ± 0.04 | -0.023 ± 0.0085 | -0.0335 ± 0.035 | 0.045 ± 0.067 | -0.023 ± 0.018 | -0.0195 ± 0.057 | -0.001 ± 0.011 | -0.0075 ± 0.005 | 0.013 ± 0.02 | 0.022 ± 0.013 | -0.0045 ± 0.028 | -0.009 ± 0.089 | -0.0605 ± 0.044 | -0.0695 ± 0.035 | -0.0195 ± 0.094
5 | CASM3C:CXCL8/IL-8 | 0.0075 ± 0.013 | 0.031 ± 0.033 | -0.0055 ± 0.0035 | -0.0125 ± 0.0035 | -0.0095 ± 0.00071 | -0.0055 ± 0.0078 | 0.0265 ± 0.005 | -0.011 ± 0.0057 | -0.0055 ± 0.028 | -0.004 | 0.004 ± 0.0085 | 0.002 ± 0.0085 | 0.005 ± 0.0042 | 0.034 ± 0.024 | 0.056 ± 0.024 | -0.0025 ± 0.021 | 0.0065 ± 0.047 | 0.015 ± 0.059
6 | CASM3C:CXCL9/MIG | 0.014 ± 0.028 | 0.005 ± 0.057 | -0.0005 ± 0.011 | -0.0305 ± 0.022 | -0.0205 ± 0.0064 | -0.0105 ± 0.0035 | 0.0145 ± 0.057 | -0.017 ± 0.011 | 0.018 ± 0.042 | -0.012 ± 0.017 | -0.003 ± 0.013 | -0.01 ± 0.0014 | 0.039 ± 0.038 | 0.05 ± 0.0071 | 0.0595 ± 0.015 | 0.021 ± 0.03 | 0.0095 ± 0.037 | 0.0005 ± 0.093
7 | CASM3C:HLA-DR | -0.0105 ± 0.066 | -0.02 ± 0.0028 | -0.0045 ± 0.012 | -0.004 ± 0.0085 | 0.011 ± 0.0099 | 0 ± 0.02 | -0.005 ± 0.016 | -0.006 ± 0.027 | -0.0195 ± 0.046 | -0.012 ± 0.021 | -0.0005 ± 0.0035 | -0.0005 ± 0.0078 | 0.0195 ± 0.054 | 0.01 ± 0.059 | 0.004 ± 0.0071 | 0.016 ± 0.0028 | -0.014 ± 0.064 | 0.035 ± 0.025
8 | CASM3C:IL-6 | -0.016 ± 0.035 | -0.016 ± 0.024 | -0.0275 ± 0.018 | -0.023 ± 0.014 | -0.024 ± 0.0028 | -0.041 ± 0.033 | -0.0725 ± 0.015 | -0.0315 ± 0.022 | 0.0105 ± 0.084 | -0.0225 ± 0.00071 | 0.013 ± 0.051 | -0.0055 ± 0.061 | 0.0075 ± 0.005 | -0.052 ± 0.042 | -0.0375 ± 0.047 | 0.001 ± 0.041 | -0.0005 ± 0.021 | 0.0255 ± 0.036
9 | CASM3C:LDLR | -0.05 ± 0.02 | -0.0415 ± 0.011 | -0.0095 ± 0.011 | -0.0165 ± 0.0078 | -0.006 ± 0.0014 | -0.0085 ± 0.00071 | 0.0005 ± 0.023 | -0.0085 ± 0.018 | 0.0055 ± 0.026 | -0.0135 ± 0.00071 | 0.0165 ± 0.029 | -0.029 ± 0.011 | -0.061 ± 0.057 | -0.032 ± 0.04 | -0.0545 ± 0.021 | -0.0555 ± 0.086 | -0.0425 ± 0.044 | -0.0125 ± 0.00071
10 | CASM3C:M-CSF | 0.045 ± 0.0099 | 0.0435 ± 0.028 | 0.022 | 0.04 ± 0.0099 | -0.0075 ± 0.011 | 0 ± 0.031 | 0.0615 ± 0.057 | -0.0325 ± 0.019 | -0.019 ± 0.067 | -0.012 ± 0.013 | 0.0045 ± 0.043 | 0.0215 ± 0.013 | -0.049 ± 0.016 | -0.0405 ± 0.0092 | -0.0405 ± 0.022 | 0.025 ± 0.024 | -0.0195 ± 0.022 | 0.0045 ± 0.063
11 | CASM3C:PAI-I | 0.0015 ± 0.011 | -0.008 ± 0.017 | 0.012 ± 0.0057 | 0.0055 ± 0.011 | 0.004 ± 0.0071 | 0.0015 ± 0.012 | 0.015 ± 0.011 | 0.001 ± 0.0014 | 0.0065 ± 0.011 | -0.0125 ± 0.022 | -0.0005 ± 0.011 | 0.0015 ± 0.005 | -0.007 ± 0.0085 | -0.0005 ± 0.0092 | -0.0025 ± 0.013 | -0.008 ± 0.0028 | -0.0015 ± 0.0035 | 0.005 ± 0.0071
12 | CASM3C:Proliferation | 0.0505 ± 0.059 | 0.021 ± 0.052 | -0.027 ± 0.0085 | 0.0415 ± 0.032 | -0.0405 ± 0.052 | -0.0015 ± 0.018 | 0.048 ± 0.03 | -0.01 ± 0.017 | -0.0245 ± 0.035 | 0.0455 ± 0.0078 | 0.041 ± 0.061 | -0.012 ± 0.016 | -0.07 ± 0.085 | -0.095 ± 0.02 | -0.104 ± 0.065 | -0.018 ± 0.055 | 0.0175 ± 0.07 | -0.0245 ± 0.03
13 | CASM3C:SRB | -0.0005 ± 0.0064 | 0.002 | 0.0075 ± 0.011 | -0.0075 ± 0.0021 | -0.002 ± 0.0028 | -0.003 ± 0.0028 | 0.001 ± 0.0071 | -0.006 ± 0.0028 | -0.0015 ± 0.005 | -0.006 ± 0.0042 | -0.011 ± 0.0028 | 0.0025 ± 0.00071 | -0.007 ± 0.0057 | -0.008 ± 0.0014 | -0.0105 ± 0.0064 | 0.0025 ± 0.0035 | 0.0015 ± 0.0021 | 0.0045 ± 0.00071
14 | CASM3C:Serum Amyloid A | -0.014 ± 0.018 | -0.012 ± 0.048 | 0.0055 ± 0.028 | 0.012 ± 0.047 | 0.029 ± 0.044 | 0.133 ± 0.18 | 0.344 ± 0.22 | -0.045 ± 0.0057 | -0.02 ± 0.078 | -0.015 ± 0.0014 | 0.014 ± 0.041 | -0.0305 ± 0.013 | -0.031 ± 0.04 | -0.034 ± 0.03 | -0.0005 ± 0.049 | -0.077 ± 0.014 | -0.058 ± 0.044 | -0.0135 ± 0.049
